# From patent US20040162221A1, “Pyrazole derivatives and herbicides containing the same” (IDEMITSU KOSAN CO., LTD., priority 1998, published 2004)
# Legend:
# velvetleaf [1] = test: Upland pre-emergence treatment test, velvetleaf; assay type: in vivo, velvetleaf (Abutilon theophrasti); details: pre-emergence soil surface spray, 80 g/ha, 20th day after treatment, greenhouse
# Excerpt: (§1) 97 Parts by weight of talc (trade name: Zeaklite, supplied by Zeaklite Industry) as a carrier, 1.5 parts by weight of alkylarylsulfonic acid salt (trade name: Neoplex, supplied by Kao-Atlas K.K.) as a surfactant and 1.5 parts by weight of a nonionic and anionic surfactant (trade names Sorpol 800A, supplied by Toho Chemical Co., Ltd.) were uniformly pulverized and mixed to prepare a carrier for a wettable powder.
# (§2) 90 Parts by weight of the above carrier for a wettable powder and 10 parts by weight of one of the compounds of the present invention were uniformly pulverized and mixed to obtain herbicides. Further, in Comparative Herbicide Examples, comparative herbicides were also prepared from the following compounds (A) and (B) in the same manner.
# (§3) Herbicidal efficacy and phytotoxicity to crops were determined on the basis of the ratio of remaining plant weight to plant weight in non-treated plot=(remaining plant weight in treated plot/plant weight in non-treated-plot)×100. The ratings were applied to the following biological tests.
# (§4) Seeds of weeds such as velvetleaf, common lambsquaters, redroot pigweed, common ragweed, green foxtail and large crabgrass and seeds of corn were sown in 1/5,000-are Wagner pots filled with upland soil, and covered with upland soil. Then, a predetermined amount of the herbicide prepared in the above (1) was suspended in water, and the suspension was uniformly sprayed onto the soil surface at a rate of 2,000 liters/hectare. Then, the seeds were grown in a greenhouse, and on the 20th day after the treatment, the herbicide was evaluated for herbicidal efficacy and phytotoxicity to corn on the basis of the ratings shown in (2).
# green foxtail [2] = test: Upland pre-emergence treatment test, green foxtail; assay type: in vivo, green foxtail (Setaria viridis); details: pre-emergence soil surface spray, 80 g/ha, 20th day after treatment, greenhouse
# Excerpt: as §1, §2, §3, §4
# common lambsquaters = test: Upland pre-emergence treatment test, common lambsquaters; assay type: in vivo, common lambsquaters (Chenopodium album); details: pre-emergence soil surface spray, 80 g/ha, 20th day after treatment, greenhouse
# Excerpt: as §1, §2, §3, §4
# velvetleaf [3] = test: Upland post-emergence treatment test, velvetleaf; assay type: in vivo, velvetleaf (Abutilon theophrasti); details: post-emergence spray at 3-4 leaf stage, 80 g/ha, 30th day after treatment, greenhouse
# Excerpt: as §1, §2, §3
# (§5) Seeds of weeds velvetleaf, redroot pigweed, common ragweed, green foxtail and large crabgrass and seeds of corn were sown in 1/5,000-are Wagner pots filled with upland soil, and covered with upland soil. The seeds were grown in a greenhouse, and at the stage of 3˜4 leaves of these plants, a predetermined amount of the herbicide prepared in the above (1) was suspended in water, and the suspension was uniformly sprayed onto leaf and stalk portions at a rate of 2,000 liters/hectare. Then, the plants were grown in the greenhouse, and on the 30th day after the treatment, the herbicide was evaluated for herbicidal efficacy and phytotoxicity to the corn on the basis of the ratings shown in (2).
# green foxtail [4] = test: Upland post-emergence treatment test, green foxtail; assay type: in vivo, green foxtail (Setaria viridis); details: post-emergence spray at 3-4 leaf stage, 80 g/ha, 30th day after treatment, greenhouse
# Excerpt: as §1, §2, §3, §5
# redroot pigweed [5] = test: Upland post-emergence treatment test, redroot pigweed; assay type: in vivo, redroot pigweed (Amaranthus retroflexus); details: post-emergence spray at 3-4 leaf stage, 80 g/ha, 30th day after treatment, greenhouse
# Excerpt: as §1, §2, §3, §5
# common ragweed [6] = test: Upland pre-emergence treatment test, common ragweed; assay type: in vivo, common ragweed (Ambrosia artemisilfolia); details: pre-emergence soil surface spray, 80 g/ha, 20th day after treatment, greenhouse
# Excerpt: as §1, §2, §3, §4
# common ragweed [7] = test: Upland post-emergence treatment test, common ragweed; assay type: in vivo, common ragweed (Ambrosia artemisilfolia); details: post-emergence spray at 3-4 leaf stage, 80 g/ha, 30th day after treatment, greenhouse
# Excerpt: as §1, §2, §3, §5
# large crabgrass [8] = test: Upland pre-emergence treatment test, large crabgrass; assay type: in vivo; details: pre-emergence soil surface spray, 80 g/ha, 20th day after treatment, greenhouse
# Excerpt: as §1, §2, §3, §4
# redroot pigweed [9] = test: Upland pre-emergence treatment test, redroot pigweed; assay type: in vivo, redroot pigweed (Amaranthus retroflexus); details: pre-emergence soil surface spray, 80 g/ha, 20th day after treatment, greenhouse
# Excerpt: as §1, §2, §3, §4
# large crabgrass [10] = test: Upland post-emergence treatment test, large crabgrass; assay type: in vivo; details: post-emergence spray at 3-4 leaf stage, 80 g/ha, 30th day after treatment, greenhouse
# Excerpt: as §1, §2, §3, §5
# corn [11] = test: Upland post-emergence treatment test, phytotoxicity to corn; assay type: in vivo; details: post-emergence spray at 3-4 leaf stage, 80 g/ha, 30th day after treatment, greenhouse
# Excerpt: as §1, §2, §3, §5
# corn [12] = test: Upland pre-emergence treatment test, phytotoxicity to corn; assay type: in vivo; details: pre-emergence soil surface spray, 80 g/ha, 20th day after treatment, greenhouse
# Excerpt: as §1, §2, §3, §4
# Further: ranges in brackets are in %.
SMILES,Herbicidal Efficacy AA = Velvetleaf (velvetleaf [1]),Herbicidal Efficacy EE = Green foxtail (green foxtail [2]),Herbicidal Efficacy BB = Common lambsquaters (common lambsquaters),Herbicidal Efficacy AA = Velvetleaf (velvetleaf [3]),Herbicidal Efficacy EE = Green foxtail (green foxtail [4]),Herbicidal Efficacy CC = Redroot Pigweed (redroot pigweed [5]),Herbicidal Efficacy DD = Common ragweed (common ragweed [6]),Herbicidal Efficacy DD = Common ragweed (common ragweed [7]),Herbicidal Efficacy FF = Large crabgrass (large crabgrass [8]),Herbicidal Efficacy CC = Rough Pigweed (redroot pigweed [9]),Herbicidal Efficacy FF = Large crabgrass (large crabgrass [10]),Phytotoxicity Corn (corn [11]),Phytotoxicity Corn (corn [12])
CCS(=O)(=O)Oc1c(C(=O)c2ccc3c(c2C)C(C)(C)CS3(=O)=O)cnn1C [Compound 3],5 (0),5 (0),5 (0),5 (0),5 (0),5 (0),5 (0),5 (0),5 (0),5 (0),5 (0),,
Cc1c(C(=O)c2cnn(C)c2OS(=O)(=O)C(C)C)ccc2c1C(C)(C)CS2(=O)=O [Compound 5],,,,5 (0),5 (0),5 (0),,5 (0),,,5 (0),− (100),
Cc1c(C(=O)c2cnn(C)c2OS(=O)(=O)C2CC2)ccc2c1C(C)(C)CS2(=O)=O [Compound 6],,,,5 (0),5 (0),5 (0),,5 (0),,,5 (0),− (100),
CCCCS(=O)(=O)Oc1c(C(=O)c2ccc3c(c2C)C(C)(C)CS3(=O)=O)cnn1C [Compound 7],,,,5 (0),5 (0),5 (0),,5 (0),,,5 (0),− (100),
Cc1c(C(=O)c2cnn(C)c2OS(=O)(=O)CC(C)C)ccc2c1C(C)(C)CS2(=O)=O [Compound 8],,,,5 (0),5 (0),5 (0),,5 (0),,,5 (0),− (100),
CCCCCCCCS(=O)(=O)Oc1c(C(=O)c2ccc3c(c2C)C(C)(C)CS3(=O)=O)cnn1C [Compound 12],,,,5 (0),5 (0),5 (0),,5 (0),,,5 (0),− (100),
Cc1c(C(=O)c2cnn(C)c2OS(=O)(=O)CCl)ccc2c1C(C)(C)CS2(=O)=O [Compound 13],,,,5 (0),5 (0),5 (0),,5 (0),,,5 (0),− (100),
Cc1c(C(=O)c2cnn(C)c2OS(=O)(=O)CCCCl)ccc2c1C(C)(C)CS2(=O)=O [Compound 14],,,,5 (0),5 (0),5 (0),,5 (0),,,5 (0),− (100),
Cc1c(C(=O)c2cnn(C)c2OS(=O)(=O)c2ccccc2)ccc2c1C(C)(C)CS2(=O)=O [Compound 15],,,,5 (0),5 (0),5 (0),,5 (0),,,5 (0),− (100),
CCc1ccc(S(=O)(=O)Oc2c(C(=O)c3ccc4c(c3C)C(C)(C)CS4(=O)=O)cnn2C)cc1 [Compound 19],,,,5 (0),5 (0),5 (0),,5 (0),,,5 (0),− (100),
Cc1c(C(=O)c2cnn(C)c2OS(=O)(=O)c2ccc(Cl)cc2)ccc2c1C(C)(C)CS2(=O)=O [Compound 21],,,,5 (0),5 (0),5 (0),,5 (0),,,5 (0),− (100),
Cc1c(C(=O)c2cnn(C)c2OS(=O)(=O)c2ccc(Cl)cc2Cl)ccc2c1C(C)(C)CS2(=O)=O [Compound 24],,,,5 (0),5 (0),5 (0),,5 (0),,,5 (0),− (100),
COc1ccc(S(=O)(=O)Oc2c(C(=O)c3ccc4c(c3C)C(C)(C)CS4(=O)=O)cnn2C)cc1 [Compound 25],,,,5 (0),5 (0),5 (0),,5 (0),,,5 (0),− (100),
Cc1c(C(=O)c2cnn(C)c2OS(=O)(=O)c2ccc([N+](=O)[O-])cc2)ccc2c1C(C)(C)CS2(=O)=O [Compound 26],,,,5 (0),5 (0),5 (0),,5 (0),,,5 (0),− (100),
Cc1cc(C)c(S(=O)(=O)Oc2c(C(=O)c3ccc4c(c3C)C(C)(C)CS4(=O)=O)cnn2C)c(C)c1 [Compound 27],,,,5 (0),5 (0),5 (0),,5 (0),,,5 (0),− (100),
CCC(=O)Oc1c(C(=O)c2ccc3c(c2C)C(C)(C)CS3(=O)=O)cnn1C [Compound 29],,,,5 (0),5 (0),5 (0),,5 (0),,,5 (0),− (100),
"CCC(=O)Oc1c(C(=O)c2ccc3c(c2C)C(C)(C)CS3(=O)=O)cnn1C [Compound 30, 5-(1′-methyl-5′-n-propionyloxypyrazol-4′-yl)carbonyl-3,3,4-trimethyl-2,3-dihydrobenzothiophene-1,1-dioxide]",4 (1-20),5 (0),5 (0),,,,5 (0),,5 (0),5 (0),,,− (100)
Cc1ccc(C(=O)Oc2c(C(=O)c3ccc4c(c3C)C(C)(C)CS4(=O)=O)cnn2C)cc1 [Compound 42],,,,5 (0),5 (0),5 (0),,5 (0),,,5 (0),− (100),
CC(C)N.Cc1c(C(=O)c2cnn(C)c2O)ccc2c1C(C)(C)CS2(=O)=O [Compound 51],,,,5 (0),5 (0),5 (0),,5 (0),,,5 (0),− (100),
